Assay results: patent US20220073536A1 (Rigel Pharmaceuticals, Inc., priority 2003, published 2022)
Counter-ions that a name gives are not always drawn. Like-named read-outs stand apart in the source and are kept apart here. One block for each compound: values may come before it.

Test system: cultured human mast cells (CHMC)
Assay: CHMC low cell density IgE activation: tryptase assay
Assay type: cell-based
Settings: IgE activation
Outline: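 CHMC at 1000–1500 cells/well were preincubated 1 hr at 37° C., stimulated with anti-IgE for 30 minutes at 37° C., then pelleted. Supernatant tryptase was measured with a fluorogenic substrate after 30 min at room temperature, against un-stimulated control wells.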

[1] = low cell density, 8 pt, read-out: LD Tryptase, CHMC, IgE, 8 pt
[2] = low cell density CHMC, tryptase release, 8 pt, read-out: LD Tryptase, CHMC, IgE, 8 pt
[3] = low cell density CHMC, tryptase readout, 8 pt, read-out: LD Tryptase, CHMC, IgE, 8 pt
[4] = Homo sapiens, Mast cell, low cell density, 3 pt, read-out: LD Tryptase, CHMC, IgE, 3 pt
[5] = Homo sapiens, Mast cell, low cell density, 8 pt, read-out: LD Tryptase, CHMC, IgE, 8 pt
[6] = Homo sapiens, Mast cell, low cell density CHMC, tryptase, 3 pt, read-out: LD Tryptase, CHMC, IgE, 3 pt
[7] = Homo sapiens, Mast cell, low cell density CHMC, tryptase, 8 pt, read-out: LD Tryptase, CHMC, IgE, 8 pt
[8] = Homo sapiens, Mast cell, low cell density CHMC, tryptase release, 8 pt, read-out: LD Tryptase, CHMC, IgE, 8 pt
[9] = low cell density CHMC, tryptase, 3 pt, read-out: LD Tryptase, CHMC, IgE, 3 pt
[10] = low cell density CHMC, tryptase, 8 pt, read-out: LD Tryptase, CHMC, IgE, 8 pt

Compound: Cc1cc(C)cc(Nc2ncc(F)c(Nc3cccc(OC(F)(F)F)c3)n2)c1 [Compound 325, N2-(3,5-Dimethylphenyl)-5-fluoro-N4-(3-trifluoromethoxyphenyl)-2,4-pyrimidinediamine]
- IC50 (Homo sapiens, Mast cell, low cell density CHMC, tryptase release, 3 pt, read-out: LD Tryptase, CHMC, IgE, 3 pt): < 10 µM

Compound: CNC(=O)COc1cccc(Nc2ncc(F)c(Nc3ccc4c(n3)NC(=O)C(C)(C)O4)n2)c1 [Compound 986, N4-(2,2-Dimethyl-3-oxo-4H-5-pyrid[1,4]oxazin-6-yl)-5-fluoro-N2-[3-(N-methylamino)carbonylmethyleneoxyphenyl]-2,4-pyrimidinediamine Hydrogen Chloride Salt]
- IC50 (low cell density, 3 pt, read-out: LD Tryptase, CHMC, IgE, 3 pt): < 10 µM
- IC50 [1]: < 10 µM

Compound: CC1(C)Oc2ccc(Nc3nc(Nc4ccc5c(cnn5CCCN5C(=O)CCCC5=O)c4)ncc3F)nc2NC1=O [Compound 862, N4-(2,2-Dimethyl-3-oxo-4H-5-pyrid[1,4]oxazin-6-yl)-N2-[1-[3-(2,6-dioxopiperidino]propyl)indazol-5-yl]-5-fluoro-2,4-pyrimidinediamine]
- IC50 (low cell density CHMC, tryptase release, 3 pt, read-out: LD Tryptase, CHMC, IgE, 3 pt): < 10 µM
- IC50 [2]: < 10 µM

Compound: COc1cc(Nc2ncc(F)c(Nc3ccc4c(c3)NC(=O)C(C)(C)O4)n2)cc(OC)c1OC [Compound 543]
- IC50 [4]: < 10 µM
- IC50 [5]: < 10 µM

Compound: CCCn1cc2ccc(Nc3ncc(F)c(Nc4ccc(Cl)c(Cl)c4)n3)cc2n1 [Compound 765, N4-(3,4-Dichlorophenyl)-5-fluoro-N2-(2-n-propylindazol-6-yl)-2,4-pyrimidinediamine]
- IC50 [6]: < 10 µM
- IC50 [7]: < 10 µM

Compound: COc1cc(Nc2ncc(F)c(Nc3ccc4c(c3)NC(C)(C)CO4)n2)cc(OC)c1 [Compound 203, N4-(3,4-Dihydro-3,3-dimethyl-2H,4H-benz[1,4]oxazin-6-yl)-N2-(3,5-dimethoxyphenyl)-5-fluoro-2,4-pyrimidinediamine]
- IC50 [8]: < 10 µM

Compound: Cc1nn(C)c2cc(Nc3ncc(F)c(Nc4ccc5c(c4)NC(=O)C(C)(C)O5)n3)ccc12 [Compound 754, N2-(1,3-Dimethylindazol-6-yl)-N4-(2,2-dimethyl-3-oxo-4H-benz[1,4]oxazin-6-yl)-5-fluoro-2,4-pyrimidinediamine]
- IC50 [6]: < 10 µM
- IC50 [7]: < 10 µM

Compound: (R,S)-N2- (3,5-Dimethylphenyl)-5-fluoro-N4-(tetrahydrofurano[2,3]-2H-benz[1,4]oxazin-6-yl)-2,4-pyrimidinediamine [Compound 252]
- IC50 [2]: < 10 µM

Compound: C[C@@H]1Oc2ccc(Nc3nc(Nc4ccc5cnn(C)c5c4)ncc3F)cc2NC1=O [Compound 201]
- IC50 [8]: < 10 µM

Compound: COC(=O)CN1C(=O)C(C)(C)Oc2ccc(N(CC(=O)OC)c3nc(Nc4cc(OC)c(OC)c(OC)c4)ncc3F)nc21 [Compound 691, N4-(2,2-Dimethyl-4-carbomethoxymethyl-3-oxo-5-pyrid[1,4]oxazin-6-yl)-5-fluoro-N4-carbomethoxymethyl-N2-(3,4,5-trimethoxyphenyl)-2,4-pyrimidinediamine]
- IC50 [9]: < 10 µM

Compound: COc1ccc(Nc2nc(Nc3ccc4c(cnn4C)c3)ncc2F)nc1Cl [Compound 886]
- IC50 [4]: > 10 µM

Compound: CCCCn1ncc2cc(Nc3ncc(F)c(Nc4ccc(Cl)c(Cl)c4)n3)ccc21 [Compound 711, N2-(1-n-Butylindazol-5-yl)-N4-(3,4-dichlorophenyl)-5-fluoro-2,4-pyrimidinediamine]
- IC50 [6]: < 10 µM

Compound: COc1cc(Nc2ncc(F)c(Nc3ccc4c(n3)NC(=O)C(C)(C)O4)n2)cc(OC)c1OC.O=S(=O)(O)c1cccnc1 [Compound 678, N4-(2,2-Dimethyl-3-oxo-4H-5-pyrid[1,4]oxazin-6-yl)-5-fluoro-N2-(3,4,5-trimethoxyphenyl)-2,4-pyrimidinediamine 0.5 Pyridine-3-sulfonic Acid Salt]
- IC50 [9]: < 10 µM
- IC50 [10]: < 10 µM

Compound: CNC(=O)n1ccc2ccc(Nc3ncc(F)c(Nc4ccc5c(c4)NC(=O)C(C)(C)O5)n3)cc21 [Compound 347, N4-(2,2-Dimethyl-3-oxo-4H-benz[1,4]oxazin-6-yl)-N2-[1-(N-methylaminocarbony)lindol-6-yl)-5-fluoro-2,4-pyrimidinediamine]
- IC50 [9]: < 10 µM

Compound: CNC(=O)COc1c(C)cc(Nc2ncc(F)c(Nc3ccc4c(c3)OCCO4)n2)cc1C [Compound 572, N2-[3,5-dimethyl-4-(N-methylamino)carbonylmethyleneoxyphenyl]-N4-(3,4-ethylenedioxyphenyl)-5-fluoro-2,4-pyrimidinediamine]
- IC50 (low cell density CHMC, tryptase release, 3 point, read-out: LD Tryptase, CHMC, IgE, 3 pt): < 10 µM
- IC50 (low cell density CHMC, tryptase release, 8 point, read-out: LD Tryptase, CHMC, IgE, 8 pt): < 10 µM

Compound: COC(=O)CN1C(=O)C(C)(C)Oc2ccc(Nc3ccnc(Nc4ccc5c(n4)N(CC(=O)OC)C(=O)C(C)(C)O5)n3)nc21 [Compound 688, N2,N4-Bis (2,2-dimethyl-4-carbomethoxymethyl-3-oxo-5-pyrid[1,4]oxazin-6-yl)-2,4-pyrimidinediamine]
- IC50 [9]: > 10 µM

Compound: COc1cc(Nc2ncc(F)c(Nc3ccc4c(c3)OC(F)(F)C(F)(F)O4)n2)cc(OC)c1 [Compound 357]
- IC50 [9]: < 10 µM
- IC50 [10]: < 10 µM

Compound: COc1cc(Nc2ncc(F)c(Nc3ccc4c(c3)OCCO4)n2)c(OC)cc1Cl [Compound 379]
- IC50 [6]: < 10 µM

The remaining lines, values ahead:

- IC50 [3]: < 10 µM
Compound: CNC(=O)COc1cccc(Nc2ncc(F)c(Nc3ccc4c(n3)NC(=O)CO4)n2)c1C [Compound 1068, 5-Fluoro-N2-[2-methyl-3-(N-methylamino)carbonylmethyleneoxyphenyl]-N4-(3-oxo-2H,4H-5-pyrid[1,4]oxazin-6-yl)-2,4-pyrimidinediamine]

- IC50 (low cell density CHMC, tryptase readout, 3 pt, read-out: LD Tryptase, CHMC, IgE, 3 pt): < 10 µM
- IC50 [3]: < 10 µM
Compound: COc1cc(Nc2ncc(F)c(Nc3ccc4c(n3)NC(=O)[C@H](C)O4)n2)cc(OC)c1OC [Compound 1082, (S)-5-Fluoro-N4-(2-methyl-3-oxo-2H,4H-5-pyrid[1,4]oxazin-6-yl)-N2-(3,4,5-trimethoxyphenyl)-2,4-pyrimidinediamine]

- IC50 [1]: < 10 µM
Compound: Cn1c(CN2CCOCC2)nc2cc(Nc3ncc(F)c(Nc4ccc5c(c4)NC(=O)C(C)(C)O5)n3)ccc21 [Compound 956, N4-(2,2-Dimethyl-3-oxo-4H-benz[1,4]oxazin-6-yl)-5-fluoro-N2-[1-methyl-2-(4-morpholinomethyl)benzimidazol-5-yl]-2,4-pyrimidinediamine]

- IC50 (Homo sapiens, Mast cell, low cell density CHMC, tryptase readout, 3 pt, read-out: LD Tryptase, CHMC, IgE, 3 pt): < 10 µM
- IC50 (Homo sapiens, Mast cell, low cell density CHMC, tryptase readout, 8 pt, read-out: LD Tryptase, CHMC, IgE, 8 pt): < 10 µM
Compound: O=C1COc2ccc(Nc3ncc(F)c(Nc4ccc5c(c4)NC(=O)CO5)n3)cc2N1 [Compound 1083, N2,N4-Bis (3-oxo-2H,4H-benz[1,4]oxazin-6-yl)-5-fluoro-2,4-pyrimidinediamine]

- IC50 [6]: < 10 µM
Compound: CCOC(=O)N1CCC(Nc2nc(Nc3cccc(N4CCN(C)CC4)c3)ncc2F)CC1 [Compound 1226]

- IC50 [9]: < 10 µM
- IC50 [10]: < 10 µM
Compound: CN1CCN(c2ccc(Nc3ncc(F)c(Nc4ccc5c(n4)NCCO5)n3)cc2Cl)CC1 [Compound 1197, N2-[3-Chloro-4-(4-methylpiperazino)phenyl]-N4-(3,4-dihydro-2H,4H-5-pyrid[1,4]oxazin-6-yl)-5-fluoro-2,4-pyrimidinediamine]

- IC50 [4]: < 10 µM
- IC50 [5]: < 10 µM
Compound: CC1(C)Oc2ccc(Nc3nc(Nc4ccc5c(c4)nc(C(F)(F)F)n5CCCO)ncc3F)cc2NC1=O [Compound 939]

- IC50 [3]: < 10 µM
Compound: CC(=O)N1CCN(c2cccc(Nc3ncc(F)c(Nc4ccc5c(n4)NC(=O)CO5)n3)c2)CC1 [Compound 1071, N2-[3-(4-Acetylpiperazino)phenyl]-5-fluoro-N4-(3-oxo-2H,4H-5-pyrid[1,4]oxazin-6-yl)-2,4-pyrimidinediamine]

- IC50 [6]: < 10 µM
Compound: COC(=O)CCNC(=O)c1ccc(Nc2ncc(F)c(Nc3ccc4c(n3)NC(=O)C(C)(C)O4)n2)cc1 [Compound 1312, N4-(2,2-Dimethyl-3-oxo-4H-5-pyrid[1,4]oxazin-6-yl)-5-fluoro-N2-[4-[N-(2-methoxycarbonylethyl)aminocarbonyl]phenyl]-2,4-pyrimidinediamine]

- IC50 [4]: < 10 µM
- IC50 [5]: < 10 µM
Compound: CC(=O)NCCCn1c(C)nc2cc(Nc3ncc(F)c(Nc4ccc5c(c4)NC(=O)C(C)(C)O5)n3)ccc21 [Compound 952]

- IC50 [4]: < 10 µM
- IC50 [5]: < 10 µM
Compound: Cc1nc2cc(Nc3ncc(F)c(Nc4ccc5c(c4)NC(=O)[C@H](C)O5)n3)ccc2n1C [Compound 897]

- IC50 [6]: > 10 µM
Compound: CN1CCN(c2cccc(Nc3ncc(F)c(NC(C)(C)C)n3)c2)CC1 [Compound 1216]

- IC50 [4]: < 10 µM
Compound: COc1ccc(Nc2nc(Nc3ccc4c(c3)nc(C)n4CCO)ncc2F)cc1Cl [Compound 900]

- IC50 [4]: < 10 µM
Compound: COc1ccc(Nc2nc(Nc3ccc4c(c3)nc(C)n4C)ncc2F)cc1Cl [Compound 895]

- IC50 [4]: < 10 µM
- IC50 [5]: < 10 µM
Compound: Cc1nc2cc(Nc3ncc(F)c(Nc4ccc5c(c4)NC(=O)C(C)(C)O5)n3)ccc2n1CCO [Compound 901]

- IC50 [6]: < 10 µM
Compound: CCOC(=O)N1CCC(Nc2nc(Nc3ccc(N4CCN(C)CC4)cc3)ncc2F)CC1 [Compound 1225]

- IC50 [7]: < 10 µM
Compound: COC(=O)c1ccc(Nc2ncc(F)c(Nc3ccc4c(c3)NC(=O)[C@@H](C)O4)n2)cc1 [Compound 1266]
